Source: patent EP0560983B1, “New DNA sequence” (priority 1991, dated 1993)

Assays:
Format in all cases: biochemical, Brevibacterium sterolicum ATCC 21387
[1] = biological target: T1, cholesterol oxidase I (Brevibacterium sterolicum, UniProt P22637); assay: Influence of inhibitor on enzyme activity; details: inhibitor at 1 mM, activity in the absence of the inhibitor = 100
T1 construct: host or cells: Brevibacterium sterolicum ATCC 21387 (origin of the enzyme; how it was prepared is not described)
Description: (§1) (3) Working pH for activity: The working pH of cholesterol oxidase II is in a range of 5.0 to 7.5, whereas that of cholesterol oxidase I is in a range of 6.0 to 7.5. […]
(§2) (d) Based on the amount of hydrogen peroxide formed, the amount of oxygen consumed and identification of the reaction product as described in (a), (b) and (c), it is recognized that the enzyme of the present invention acts on specifically cholesterol, that cholesterol was oxidized into hydrogen peroxide and 4-cholesten-3-one; that is, this enzyme has a cholesterol oxidase activity. [drawing 2] wherein R represents [drawing 3] • II. Working pH range and stable pH range The working pH for the activity is in a range of 5.0 to 7.5. The working pH range was determined by assaying the activity at each pH (phosphate buffer, Tris-HCl buffer, sodium acetate buffer) after the reaction at 37°C for 5 minutes. […] The pH range is determined by treating the enzyme at 50°C for 60 minutes at each pH (phosphate buffer, Tris-HCl buffer, sodium acetate buffer) and then assaying the residual activity. Method for determination of titer The amount of enzyme which catalyzes the reaction of decomposing 1 µmole of cholesterol at 37°C for one minute in the presence of oxygen is defined as one unit. The titer is determined as follows. With shaking, the enzyme acts on cholesterol and 4-aminoantipyrine and phenol are reacted with the formed hydrogen peroxide in the presence of peroxidase to form quinoneimine pigment. Absorption of the thus formed quinoneimine pigment in the visible region is measured to determine the amount of hydrogen peroxide generated. Thus, the titer of the enzyme is determined. Hereafter specific activity is defined as activity per 1 mg of protein (unit/mg). Furthermore, an amount of enzyme protein is determined by absorbance at 280 nm (1 mg/mℓ when absorbance is 1). • (a) Principle The enzyme activity is determined by reacting hydrogen peroxide generated by the enzyme with 4-aminoantipyrine and phenol in the presence of peroxidase and quantitatively determining the formed quinoneimine pigment. The reaction is shown by the following equations (1) and (2). [drawing 4] wherein R represents [drawing 5] [drawing 6] • (b) Procedure In a test tube, there are charged 1.0 ml of 3 mM cholesterol solution (which is prepared by adding 6 mℓ of 50 mM cholesterol ethanol solution to 94 mℓ of 1.05% Triton X-100 solution with stirring, heating the mixture for 10 minutes on a water bath, cooling the mixture in water, adding distilled water to the mixture until the total volume is 100 mℓ; and is not allowed to be used 30 minutes or longer after preparation), 0.3 mℓ of 50 mM sodium bilate solution, 0.3 mℓ of 0.5 mM potassium-sodium phosphate buffer (pH 6.6), 0.5 mℓ of 42 mM phenol, 0.5 mℓ of 2.4 mM 4-aminoantipyrine and 0.2 mℓ of 115 units/mℓ horseradish-derived peroxidase. The mixture is agitated. After maintaining at 37°C for 3 mintues, 0.2 mℓ of an enzyme solution is added to the mixture. With shaking, the reaction is carried out at 37°C for 5 to 10 minutes. Then, absorbance is measured at 500 nm (OD 500 nm). • (c) Calculation of titer One unit of cholesterol oxidase II corresponds to an enzyme activity which decomposes 1 µmole of cholesterol at 37°C for 1 minute. On the other hand, it is reported that absorption coefficient of 1 mM quinoneimine is 5.33 [Clinical Chemistry, 20, 470 (1974)]. […]

[2] = tested on: cholesterol oxidase II; assay: Influence of inhibitor on enzyme activity; details: for Relative Activity (%): cholesterol oxidase II, inhibitor at 1 mM, activity in the absence of the inhibitor = 100; for Inhibition: whether cholesterol oxidase II is inhibited, in words
Description: as §1, §2

[3] = biological target: T1, cholesterol oxidase I; assay: Substrate specificity (relative activity on each substrate); details: activity of cholesterol oxidase I on each substrate; cholesterol = 100
Method: (§3) The working pH range was determined by assaying the activity at each pH (phosphate buffer, Tris-HCl buffer, sodium acetate buffer) after the reaction at 37°C for 5 minutes. […] The pH range is determined by treating the enzyme at 50°C for 60 minutes at each pH (phosphate buffer, Tris-HCl buffer, sodium acetate buffer) and then assaying the residual activity. Method for determination of titer The amount of enzyme which catalyzes the reaction of decomposing 1 µmole of cholesterol at 37°C for one minute in the presence of oxygen is defined as one unit. The titer is determined as follows. With shaking, the enzyme acts on cholesterol and 4-aminoantipyrine and phenol are reacted with the formed hydrogen peroxide in the presence of peroxidase to form quinoneimine pigment. Absorption of the thus formed quinoneimine pigment in the visible region is measured to determine the amount of hydrogen peroxide generated. Thus, the titer of the enzyme is determined. Hereafter specific activity is defined as activity per 1 mg of protein (unit/mg). […] The mixture is agitated. After maintaining at 37°C for 3 mintues, 0.2 mℓ of an enzyme solution is added to the mixture. With shaking, the reaction is carried out at 37°C for 5 to 10 minutes. Then, absorbance is measured at 500 nm (OD 500 nm). • (c) Calculation of titer One unit of cholesterol oxidase II corresponds to an enzyme activity which decomposes 1 µmole of cholesterol at 37°C for 1 minute. […] Optimum temperature The optimum temperature at a pH of 6.6 for 3 minutes of the reaction time was examined. […] After heat treatment at pH of 7.0 for 60 minutes in 0.05 M phosphate buffer, the residual activity was determined. […] Reaction rates of the two enzymes were measured in various concentrations of cholesterol. […] Michealis' constant was determined from the Line weaver-Burk plot [refer to J. Am. […] Determination of the amino acid sequence and nucleotide sequence of cholesterol oxidase II Cholesterol oxidase II may be divided into 2 subunits, using reverse phase high performance liquid chromatography. Each subunit is digested with a protease, for example trypsin, and the digested subunit is further fractionated using high performance liquid chromatography, to obtain protease-digested fragments. The amino acid sequence of each digested fragment may be analyzed according to the conventional method, with the amino acid sequencer.

[4] = tested on: cholesterol oxidase II; assay: as above; details: for Relative Activity (%): activity of cholesterol oxidase II on each substrate, cholesterol = 100; for Substrate specificity: whether cholesterol oxidase II acts on the substrate, in words
Method: as §3

T1 sequence (P22637 46-552): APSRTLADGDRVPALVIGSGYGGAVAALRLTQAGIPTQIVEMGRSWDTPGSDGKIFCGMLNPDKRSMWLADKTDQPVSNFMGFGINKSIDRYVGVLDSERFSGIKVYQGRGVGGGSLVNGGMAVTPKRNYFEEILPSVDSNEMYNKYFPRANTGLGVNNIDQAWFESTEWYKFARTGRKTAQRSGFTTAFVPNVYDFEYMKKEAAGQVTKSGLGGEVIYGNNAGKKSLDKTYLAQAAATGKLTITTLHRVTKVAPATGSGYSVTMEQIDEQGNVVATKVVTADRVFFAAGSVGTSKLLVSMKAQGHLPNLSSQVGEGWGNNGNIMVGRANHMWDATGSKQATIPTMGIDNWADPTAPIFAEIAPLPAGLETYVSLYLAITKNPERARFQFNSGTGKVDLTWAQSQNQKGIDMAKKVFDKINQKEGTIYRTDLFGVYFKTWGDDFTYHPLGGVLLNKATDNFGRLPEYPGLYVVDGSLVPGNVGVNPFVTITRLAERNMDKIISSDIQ

## O=[N+]([O-])[O-].[Ag+] [AgNO3, silver nitrate]
[1]
  Relative Activity (%): 0%
[2]
  Relative Activity (%): 1.0%
  Inhibition: inhibited

## C[C@]12CC[C@@H]3c4ccc(O)cc4CC[C@H]3[C@@H]1CC[C@@H]2O [Estradiol]
[3]
  Relative Activity (%): 0%

## CC(C)CCC[C@@H](C)[C@H]1CC[C@H]2[C@@H]3CC=C4C[C@@H](O)CC[C@]4(C)[C@H]3CC[C@]12C [Cholesterol, 5-cholesten-3-β-ol]
[3]
  Relative Activity (%): 100%
[4]
  Relative Activity (%): 100%
  Substrate specificity: acts on

## O=S(=O)(O)c1cc[c]([Hg][Cl])cc1 [p-Chloromercury benzenesulfonate]
[2]
  Relative Activity (%): 87.0%
  Inhibition: inhibited

## C[C@]12CC[C@H](O)CC1=CC[C@@H]1[C@@H]2CC[C@]2(C)C(=O)CC[C@@H]12 [Dehydroisoandrosterone]
[3]
  Relative Activity (%): 41.4%
[4]
  Relative Activity (%): 13.0%
  Substrate specificity: acts on

## CCCCC/C=C\C/C=C\CCCCCCCC(=O)O[C@H]1CC[C@@]2(C)C(=CC[C@H]3[C@@H]4CC[C@H]([C@H](C)CCCC(C)C)[C@@]4(C)CC[C@@H]32)C1 [Cholesterol linoleate]
[3]
  Relative Activity (%): 0%
[4]
  Relative Activity (%): 0%
  Substrate specificity: does not act on

## Oc1cccc2cccnc12 [o-Hydroxyquinoline]
[2]
  Relative Activity (%): 91.3%
  Inhibition: inhibited

## C[C@]12CC[C@@H](O)C[C@@H]1CC[C@@H]1[C@@H]2CC[C@]2(C)C(=O)CC[C@@H]12 [Androsterone]
[3]
  Relative Activity (%): 0%
[4]
  Relative Activity (%): 0%
  Substrate specificity: does not act on

## C=C1CC[C@H](O)C/C1=C/C=C1\CCC[C@]2(C)[C@@H]([C@H](C)CCCC(C)C)CC[C@@H]12 [Vitamin D3]
[3]
  Relative Activity (%): 0%
[4]
  Relative Activity (%): 0%
  Substrate specificity: does not act on

## CC[C@H](/C=C/[C@@H](C)[C@H]1CC[C@H]2[C@@H]3CC=C4C[C@@H](O)CC[C@]4(C)[C@H]3CC[C@]12C)C(C)C [Stigmasterol]
[3]
  Relative Activity (%): 10.0%
[4]
  Relative Activity (%): 64.4%
  Substrate specificity: acts on

## CC(=O)[C@H]1CC[C@H]2[C@@H]3CC=C4C[C@@H](O)CC[C@]4(C)[C@H]3CC[C@]12C [Pregnenolone]
[3]
  Relative Activity (%): 22.4%
[4]
  Relative Activity (%): 32.9%
  Substrate specificity: acts on

## CC(C)=CCC[C@@H](C)[C@H]1CC[C@@]2(C)C3=C(CC[C@]12C)[C@@]1(C)CC[C@H](O)C(C)(C)[C@@H]1CC3 [Lanosterol]
[3]
  Relative Activity (%): 0%
[4]
  Relative Activity (%): 0%
  Substrate specificity: does not act on

## CC[C@H](CC[C@@H](C)[C@H]1CC[C@H]2[C@@H]3CC=C4C[C@@H](O)CC[C@]4(C)[C@H]3CC[C@]12C)C(C)C [β-Sitosterol]
[3]
  Relative Activity (%): 19.7%
[4]
  Relative Activity (%): 82.0%
  Substrate specificity: acts on
